Usually melting point stands for the temperature, or range, at which the solid turns liquid.

Regarding `CN1C(=O)C(S)=C(S)C1=O`, the melting point was 145 to 148 °C.
As to `CN1C(=O)C(SC(=N)N)=C(SC(=N)N)C1=O` [Compound 1, [(1-methyl-2,5-dioxo-2,5-dihydro-1H-pyrrole-3,4-diyl)disulphanediyl]bis(aminomethaniminium) dichloride], the melting point was 163 to 164 °C.
With `CN1C(=O)C(S)=C(SC(=N)N)C1=O` [Compound 27, 4-{[amino(iminio)methyl]sulphanyl}-1-methyl-2,5-dioxo-2,5-dihydro-1H-pyrrole-3-thiolate], the melting point lay in the range of 150 to 152 °C.
